System: HCV replicon cells
Assay: Cell-based HCV replicon assay (replicon RNA level by real time PCR, Taqman)
Details: HCV replicon cells, replicon RNA level by real time PCR, harvested day 3; read-out: EC90 (μM) range
Procedure, shortened: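 HCV replicon cells treated 3 days with 10 serial 2-fold compound dilutions (top 25 μM to 1 μM; 0.5% DMSO, 10% FBS). Replicon RNA quantified by multiplex Taqman RT-PCR (NS5B amplicon, GAPDH control); EC50 and EC90 = concentrations giving ΔCT of 1 and 3.2 over baseline.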

| Compound | EC90 [µM] |
| --- | --- |
| Cc1nc(NCC2CC2)nc(N[C@@H]2C[C@H](C(C)O)[C@@H](O)[C@H]2O)c1-c1nc2ccccc2s1 (single isomer, unassigned) [Example 1647] | 0.5 to 5 |

Same assay, conditions: Hepatitis C virus, 72 h, HCV replicon cells, harvested day 3, replicon RNA by real time PCR; given as number; read-out: EC90 (μM) range

| Compound | EC90 [µM] |
| --- | --- |
| CON=C1[C@H](Nc2nc(NCC(F)(F)F)nc(C)c2-c2nc3ccccc3s2)C[C@H](CO)[C@H]1O [Example 55] | 3.4 |
| CCOc1cc2cc(-c3c(C)nc(NCC4CC4)nc3N[C@@H]3C[C@H](CO)[C@@H](O)C3)oc2c(C)n1 [Example 52] | 0.3 |

Same assay, conditions: Hepatitis C virus, 72 h, HCV replicon cells, harvested day 3, replicon RNA by real time PCR; reported as range class; read-out: EC90 (μM) range

| Compound | EC90 [µM] |
| --- | --- |
| Cc1ccc2oc(-c3c(Cl)nc(N)nc3N[C@@H]3C[C@H](CO)[C@@H](O)[C@H]3O)cc2n1 [Example 16] | 0.5 to 5 |
| CC(C)OCCNc1nc(Cl)c(-c2nc3ccccc3s2)c(N[C@@H]2C[C@H](CO)[C@@H](O)[C@H]2O)n1 [Example 219] | < 0.5 |
| CNc1nc(C)c(-c2cc3cc(OC)nc(C)c3o2)c(N[C@@H]2C[C@H](CO)[C@@H](O)[C@H]2O)n1 [Example 17] | < 0.5 |
| CO[C@@H](C)CNc1nc(Cl)c(-c2nc3ccccc3s2)c(N[C@@H]2C[C@H](CO)[C@@H](O)[C@H]2O)n1 [Example 228] | < 0.5 |
| Nc1nc(Cl)c(-c2cccc(N3CCOCC3)n2)c(N[C@@H]2C[C@H](CO)[C@@H](O)[C@H]2O)n1 [Example 158] | > 5 |
| CCOCCNc1nc(C)c(-c2nc3ccccc3s2)c(N[C@@H]2C[C@H](CO)[C@@H](O)[C@H]2O)n1 [Example 208] | < 0.5 |
| COCCNc1nc(Cl)c(-c2nc3ccccc3s2)c(N[C@@H]2C[C@H](CO)[C@@H](O)[C@H]2O)n1 [Example 201] | < 0.5 |
| CCc1cc2cc(-c3c(Cl)nc(N)nc3N[C@@H]3C[C@H](CO)[C@@H](O)[C@H]3O)oc2c(CC)n1 [Example 407] | < 0.5 |
| COC[C@H]1C[C@@H](Nc2nc(N(C)C)nc(Cl)c2-c2nc3ccccc3s2)[C@@H]2OC(C)(C)O[C@H]12 [Example 120] | > 5 |
| OC[C@H]1C[C@@H](Nc2nc(NCCCF)nc(Cl)c2-c2nc3ccccc3s2)[C@H](O)[C@@H]1O [Example 126] | < 0.5 |

Same assay, conditions: Hepatitis C virus, 72 h, HCV replicon cells, harvested on day 3, replicon RNA by real time PCR; calculated EC90 reported as range class; read-out: EC90 (μM) range

| Compound | EC90 [µM] |
| --- | --- |
| CCc1cc2cc(-c3c(C)nc(NCc4nccs4)nc3N[C@@H]3C[C@H](CO)[C@H]4OC(C)(C)O[C@H]43)oc2cn1 [Example 341] | < 0.5 |
| Cc1ccc(CNc2nc(C)c(-c3nc4ccccc4s3)c(N[C@@H]3C[C@H](CO)[C@@H](O)[C@H]3O)n2)s1 [Example 497] | < 0.5 |
| OC[C@H]1C[C@@H](Nc2nc(NCc3ccccc3F)nc(Cl)c2-c2nc3ccccc3s2)[C@H](O)[C@@H]1O [Example 232] | < 0.5 |
| CCCCCNc1nc(Cl)c(-c2cc3cc(C)ncc3o2)c(N[C@@H]2C[C@H](CO)[C@@H](O)[C@H]2O)n1 [Example 451] | < 0.5 |
| Cc1nc(NCCN(C)C)nc(N[C@@H]2C[C@H](CO)[C@@H](O)[C@H]2O)c1-c1nc2ccccc2s1 [Example 246] | > 5 |
| CCCNc1nc(Cl)c(-c2nc3ccccc3s2)c(N[C@@H]2C[C@H](CO)[C@@H](O)[C@H]2O)n1 [Example 419] | < 0.5 |
| CCCCCNc1nc(C)c(-c2nc3ccccc3s2)c(N[C@@H]2C[C@H](CO)[C@@H](O)[C@H]2O)n1 [Example 435] | < 0.5 |
| Cc1cc(CNc2nc(C)c(-c3nc4ccccc4s3)c(N[C@@H]3C[C@H](CO)[C@H]4OC(C)(C)O[C@H]43)n2)no1 [Example 491] | 0.5 to 5 |
| Cc1nc(NCc2cccs2)nc(N[C@@H]2C[C@H](C)[C@H]3OC4(CCCCC4)O[C@H]32)c1-c1nc2ccccc2s1 [Example 335] | > 5 |
| Cc1nc(NC(C)(C)C)nc(N[C@@H]2C[C@H](CO)[C@@H](O)[C@H]2O)c1-c1nc2ccccc2s1 [Example 429] | < 0.5 |
| CCOC(=O)NCCNc1nc(C)c(-c2nc3ccccc3s2)c(N[C@@H]2C[C@H](CO)[C@@H](O)[C@H]2O)n1 [Example 256] | < 0.5 |

Same assay, conditions: Hepatitis C virus, 72 h, HCV replicon cells, replicon RNA level by real time PCR (Taqman), day 3; calculated EC90; read-out: EC90 (μM) range

| Compound | EC90 [µM] |
| --- | --- |
| Cc1nc(NCC2CC2)nc(N[C@@H]2C[C@H](CO)[C@@H](O)[C@H]2O)c1-c1nc2cnccc2o1 [Example 2003] | 0.5 to 5 |

Same assay, conditions: Hepatitis C virus, 72 h, HCV replicon cells, replicon RNA level by real time PCR (Taqman), harvested on day 3; calculated EC90 reported as range class; read-out: EC90 (μM) range

| Compound | EC90 [µM] |
| --- | --- |
| Cc1nc(NC(C)(C)c2ccccc2)nc(N[C@@H]2C[C@H](CO)[C@@H](O)[C@H]2O)c1-c1nc2cnccc2s1 [Example 1229] | 0.5 to 5 |
| Cc1nc(N(C)c2ccccc2)nc(N[C@@H]2C[C@H](CO)[C@@H](O)[C@H]2O)c1-c1nc2cnccc2s1 [Example 1217] | > 5 |
| Cc1nc(NCc2cccc(N)c2)nc(N[C@@H]2C[C@H](CO)[C@@H](O)[C@H]2O)c1-c1nc2ccccc2s1 [Example 1112] | 0.5 to 5 |
| Cc1cc2sc(-c3c(C)nc(N[C@@H](C)c4ccc(OC(F)(F)F)cc4)nc3N[C@@H]3C[C@H](CO)[C@@H](O)[C@H]3O)nc2c(C)n1 [Example 1137] | < 0.5 |
| [2H]C([2H])(Nc1nc(C)c(-c2nc3ccccc3s2)c(N[C@@H]2C[C@H](CO)[C@@H](O)[C@H]2O)n1)c1ccccc1 [Example 1245] | < 0.5 |
| COCCNc1nc(C)c(-c2nc3cc(OC)ccc3s2)c(N[C@@H]2C[C@H](CO)[C@@H](O)[C@H]2O)n1 [Example 1009] | 0.5 to 5 |
| COCCNc1nc(C)c(-c2nc3cc(OC(F)F)c(OC(F)F)cc3s2)c(N[C@@H]2C[C@H](CO)[C@H]3OC(C)(C)O[C@H]32)n1 [Example 1003] | > 5 |
| Cc1nc(NC(C)c2ccccn2)nc(N[C@@H]2C[C@H](CO)[C@@H](O)[C@H]2O)c1-c1nc2ccccc2s1 (stereo partly shown) [Example 1202] | 0.5 to 5 |
| Cc1ccc([C@@H](C)Nc2nc(C)c(-c3ccc4ccccc4n3)c(N[C@@H]3C[C@H](CO)[C@@H](O)[C@H]3O)n2)cc1 [Example 1323] | > 5 |
| Cc1nc(Nc2nccs2)nc(N[C@@H]2C[C@H](CO)[C@@H](O)[C@H]2O)c1-c1nc2ccccc2s1 [Example 1013] | 0.5 to 5 |
| Cc1nc(NCC(F)(F)F)nc(N[C@H]2C[C@@H](CO)[C@H](O)[C@@H]2O)c1-c1nc2ccccc2s1 [Example 1060] | > 5 |
| COCCNc1nc(C)c(-c2nc3cc(OC(F)F)c(OC(F)F)cc3s2)c(N[C@@H]2C[C@H](CO)[C@@H](O)[C@H]2O)n1 [Example 1004] | 0.5 to 5 |
| Cc1nc(NCc2cccc(C(=O)O)c2)nc(N[C@@H]2C[C@H](CO)[C@@H](O)[C@H]2O)c1-c1nc2ccccc2s1 [Example 1219] | > 5 |
| Cc1nc(NCC2CC2)nc(N[C@@H]2C[C@H](CO)[C@@H](S(C)(=O)=O)[C@H]2O)c1-c1nc2ccccc2s1 [Example 1136] | 0.5 to 5 |
| Cc1nc(NCc2cccc(N)c2)nc(N[C@@H]2C[C@H](CO)[C@H]3OC(C)(C)O[C@H]32)c1-c1nc2ccccc2s1 [Example 1111] | 0.5 to 5 |
| Cc1nc(Nc2ccccc2)nc(N[C@@H]2C[C@H](CO)[C@@H](O)[C@H]2O)c1-c1nc2cnccc2s1 [Example 1216] | 0.5 to 5 |
| CC[C@@H](C)Nc1nc(C)c(-c2nc3cnccc3s2)c(N[C@@H]2C[C@H](CO)[C@@H](O)[C@H]2O)n1 [Example 1316] | < 0.5 |
| Cc1nc(NCC2CC2)nc(N[C@@H]2C[C@H](CO)[C@@H](O)[C@H]2O)c1-c1cc2cc(OCC3CCC3)nc(C)c2o1 [Example 1059] | > 5 |
| Cc1nc(NCC(C)(C)C)nc(N[C@@H]2C[C@H](CO)[C@@H](O)[C@H]2O)c1-c1nc2cnccc2s1 [Example 536] | < 0.5 |
| COCCCCNc1nc(C)c(-c2nc3cnccc3s2)c(N[C@@H]2C[C@H](CO)[C@@H](O)[C@H]2O)n1 [Example 1050] | < 0.5 |
| Cc1nc(NCc2cc(Cl)cc(Cl)c2)nc(N[C@@H]2C[C@H](CO)[C@H]3OC(C)(C)O[C@H]32)c1-c1nc2ccccc2s1 [Example 1113] | 0.5 to 5 |

Same assay, conditions: Hepatitis C virus, 72 h, HCV replicon cells, replicon RNA level by real time PCR, harvested day 3; read-out: EC90 (μM) range

| Compound | EC90 [µM] |
| --- | --- |
| CCC1(O)[C@H](O)[C@@H](CO)C[C@H]1Nc1nc(NCC2CC2)nc(C)c1-c1nc2cnccc2s1 (stereo partly shown) [Example 1385] | < 0.5 |
| Cc1nc(NCC(F)(F)F)nc(N[C@@H]2C[C@H](CN3CCCS3(=O)=O)[C@@H](O)[C@H]2O)c1-c1nc2ccccc2s1 [Example 1396] | < 0.5 |
| CCOc1nccc2sc(-c3c(C)nc(N[C@H](C)c4ccc(C)cc4)nc3N[C@@H]3C[C@H](CO)[C@@H](O)[C@H]3O)nc12 [Example 1343] | < 0.5 |
| Cc1ccc([C@@H](C)Nc2nc(C)c(-c3nc4cnccc4s3)c(N[C@@H]3C[C@H](CO)[C@@H](O)[C@@]3(C)O)n2)cc1 [Example 1708] | < 0.5 |
| Cc1ccc([C@@H](C)Nc2nc(C)c(-c3nc4cnccc4s3)c(N)n2)cc1 [Example 1511] | < 0.5 |
| Cc1nc(N[C@H](C)c2ccc(C(F)(F)F)cc2)nc(N[C@@H]2C[C@H](CO)[C@@H](O)[C@H]2O)c1-c1nc2c(C)nccc2s1 [Example 1356] | < 0.5 |
| COC(=O)N(C)C[C@H]1C[C@@H](Nc2nc(NCC(F)(F)F)nc(C)c2-c2nc3ccccc3s2)[C@H](O)[C@@H]1O [Example 1390] | 0.5 to 5 |
| Cc1nc(N)nc(N[C@@H]2C[C@H](COS(C)(=O)=O)[C@@H](O)[C@H]2O)c1-c1nc2ccccc2s1 [Example 1905] | 0.5 to 5 |
| CCOc1ccc(CCNc2nc(C)c(-c3nc4cnccc4s3)c(N[C@@H]3C[C@H](CO)[C@@H](O)[C@H]3O)n2)cc1 [Example 1705] | < 0.5 |
| CO[C@@H]1[C@H](O)[C@@H](CO)C[C@H]1Nc1nc(NCC(F)(F)F)nc(C)c1-c1nc2ccccc2s1 [Example 1341] | < 0.5 |
| Cc1nc(NCC(F)(F)F)nc(N[C@@H]2CC[C@@H](O)C2O)c1-c1nc2ccccc2s1 (stereo partly shown) [Example 1625] | 0.5 to 5 |
| CCOc1cc2sc(-c3c(C)nc(N[C@H](C)c4ccc(C)cc4)nc3N[C@@H]3C[C@H](CO)[C@@H](O)[C@H]3O)nc2c(C)n1 [Example 1375] | < 0.5 |
